{"source": "patent US9586959B2", "about": "“Substituted tricyclic heterocycles as histamine 4 receptor inhibitors” (C&C RESEARCH LABORATORIES, priority 2011, dated 2017)", "key": {"[1]": {"test": "Mouse pharmacokinetics (oral)", "type": "in vivo", "settings": "plasma, 50 mg/kg, ICR mouse, 5 mg/mL solution at 10 mL/kg; for AUC(0-inf): read-out: Mouse pharmacokinetics AUCinf; for half-life: read-out: Mouse pharmacokinetics t1/2 (converted)", "method": "The weight of each ICR mouse and SD rat was properly 20˜30 g and 200˜300 g, and dosage of the compound of the present invention was 10 mL/kg for mice and 5 mL/kg for rats, and administered orally using Zonde. Blood collection was performed at 0.25, 0.5, 1, 2, 4, 6, 8 and 24 hours by orbital venous blood collection using a capillary tube coated with an anticoagulant, and then plasma was isolated using a centrifuge and kept in a freezer.\nPlasma collected from animals and standard concentration material were pretreated using solid-phase extraction, and concentration of the compound of the invention was determined using a liquid chromatography mass spectrometer (Agilent HPLC, API-3000).\nAccording to the resulting concentration value, the pharmacokinetics parameter was found using WinNonlin (Version 6.2) and half-life (t1/2), maximum blood concentration (Cmax) and infinite area under the curve (AUCinf) are shown in Tables 6 and 7 below."}, "[2]": {"test": "Solubility in artificial gastrointestinal tract solution", "type": "physicochemical", "settings": "artificial gastrointestinal tract solution, thermodynamic from solid; for solubility at 1 h: fassgf or other biorelevant, first solution pH 1.2, 2 mg/mL sample, 37° C. 1 hour; for solubility at 2 h: fassif, second solution pH 6.5, 2 mg/mL sample, 37° C. 2 hours", "summary_of_the_method": "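Two media were used: pH 1.2 NaCl/HCl with Triton X-100, and pH 6.5 phosphate buffer with sodium taurocholate and lecithin. Heated sample solutions were filtered to remove undissolved compound, diluted 1:1 with CH3CN, and solubility was measured by liquid chromatography.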"}, "[3]": {"tested_on": "oxazolone-induced atopic dermatitis, Balb/c mice", "test": "Oxazolone-induced atopic dermatitis model in Balb/c mice", "type": "in vivo", "settings": "BID, oral, days 8-28", "method": "Female, Balb/c mice (6 weeks old, 20±3 g) were purchased from OrientBio Co., Ltd. The animals were housed under conditions of controlled temperature (23±3° C.), humidity (50±5%) and lighting with food and water available ad libitum.\nOn the beginning day (day 1), mice were sensitized by the topical application of 50 μL of 1% oxazolone in acetone and olive oil (4:1 ratio) on the abdominal skin. On day 8, 10, 12, 15, 17, 19, 22, 24 and 26, 25 μL of 0.2% oxazolone was applied topically on the inner side of right ear of each mouse. Between days 8 and 28, the compound of the invention was administered orally (10 mL/kg) twice a day in the morning and afternoon, and on days 12, 19 and 27, the thickness of the right ear of the mouse was measured. On day 28, the ear tissue of the mouse was extracted, fixed in 10% formalin solution, and then a tissue slide was prepared, stained with H&E (hematoxylin & eosin), and then the thickness of the ear was observed (Journal of Investigative Dermatology, 2008, 128, 79-86). Statistical analysis was analyzed using one-way ANOVA with Dunnett test. Values of p<0.05 were considered statistically significant."}, "[4]": {"test": "Metabolic stability in mouse microsome", "settings": "mouse microsome 1 mg/mL, 5 μM compound, 1 mM NADPH"}, "[5]": {"tested_on": "compound 48/80-induced itching, ICR mice", "test": "Compound 48/80-induced itching model in ICR mice", "type": "in vivo", "settings": "50 mg/kg oral, compound 48/80 100 μg intradermal, 20 min count", "method": "Female, ICR mice (8 weeks old) were purchased from OrientBio Co., Ltd. The animals were housed under conditions of controlled temperature (23±3° C.), humidity (50±5%) and lighting with food and water available ad libitum.\nThe hair was clipped using clippers (8000AD, THRIVE) over the rostral part of the back 24 hours before the experiment under anesthesia with isoflurane. Compound 48/80 (100 μg) were dissolved in saline and a volume of 40 μL injected intradermally into the rostral part of the back. Mice were dosed by orally with either vehicle (20% cyclodextrin in second distilled water) or the compound by orally administration. The Compound (50 mg/kg) dissolved in a vehicle (20% cyclodextrin in second distilled water) and administered orally at a volume of 10 mL/kg.\nMice (n=8-10 per group) were divided into 3 groups (normal group, control group and experimental group). The animals were randomized for similar body weight distribution. A vehicle or the compound was administered 20 minutes before injection of compound 48/80 or saline. Immediately after intradermal injection, the animals were returned to an acrylic cage (approximately 30×30×30 cm, access production) composed of four cells, to which they had been acclimated for at least 1 hour before the experiment, for observation of itch responses. A camera (Samsung, VLUUNV30) was positioned above the mice to record their response. Itch was measured by blinded counting of the number of bouts in the 20 min period immediately after the intradermal injection. A number of scratching was defined as 3 or more individual rapid scratch movements with the hind paws around the injection site (J. Pharmacol. Sci. 2006, 100, 285-288; European J. of Pharmacol. 2002, 448, 175-183). All data were analyzed by using Excel and Prism, and all values are expressed as the mean±S.E.M. The inhibitory effect of compounds is shown as a percentage of the maximal response to histamine (100% control group). Statistical analysis was analyzed using one-way ANOVA with Dunnett test. Values of p<0.05 were considered statistically significant."}, "[6]": {"molecular_target": "human serotonin 3 receptor (human 5-HT3 receptor) (Homo sapiens (Human), UniProt P46098)", "sequence (P46098 24-478)": "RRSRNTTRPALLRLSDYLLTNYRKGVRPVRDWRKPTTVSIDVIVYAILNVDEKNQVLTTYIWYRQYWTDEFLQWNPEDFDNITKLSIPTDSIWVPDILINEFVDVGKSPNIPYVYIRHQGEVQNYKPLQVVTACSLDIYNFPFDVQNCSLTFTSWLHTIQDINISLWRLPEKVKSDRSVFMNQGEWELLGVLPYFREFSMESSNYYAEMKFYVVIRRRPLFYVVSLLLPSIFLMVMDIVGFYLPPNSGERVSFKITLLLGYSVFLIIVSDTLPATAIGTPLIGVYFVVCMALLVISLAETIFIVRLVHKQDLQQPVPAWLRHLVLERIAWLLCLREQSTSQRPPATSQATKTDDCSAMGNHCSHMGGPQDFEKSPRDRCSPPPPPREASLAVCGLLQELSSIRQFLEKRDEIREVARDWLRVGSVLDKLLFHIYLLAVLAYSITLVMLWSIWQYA", "test": "Binding affinity of human serotonin 3 receptor (performed at Cerep)", "settings": "for IC50: read-out: Binding affinity (IC50) of human serotonin 3 receptor (h5-HT3R); for inhibition at 10 µM: read-out: % inhibition degree at 10 μM, human serotonin 3 receptor (h5-HT3R)", "method": "The binding assays of the human serotonin 3 receptor for present invention were performed at Cerep (Poitiers, France), and the results of analysis are shown in Table 3."}}, "data": [{"smiles": "CN1CCN(c2nc3ncc(Cl)cc3n3cnnc23)CC1", "note": "[Compound 4, 8-Chloro-4-(4-methylpiperazin-1-yl)pyrido[2,3-e][1,2,4]triazolo[4,3-a]pyrazine]", "values": [{"measurement": "Cmax", "setting": "[1]", "value": 14900, "unit": "ng/mL"}, {"measurement": "AUC(0-inf)", "setting": "[1]", "value": 35600, "unit": "ng·h/mL"}, {"measurement": "half-life", "setting": "[1]", "value": 2.21, "unit": "h"}, {"measurement": "solubility at 1 h", "setting": "[2]", "value": 2010, "unit": "µg/mL"}, {"measurement": "solubility at 2 h", "setting": "[2]", "value": 1240, "unit": "µg/mL"}, {"measurement": "Ear epidermis thickness (% change from control group)", "setting": "[3]; 100 mg/kg", "value": 47.2, "unit": "%"}, {"measurement": "Metabolic stability (CLh. int), Mouse", "setting": "[4]", "value": 10220, "unit": "µL/min/mg"}, {"measurement": "Number of scratching (% change from control group)", "setting": "[5]", "value": "49.6^1%"}]}, {"smiles": "Clc1cnc2nc(N3CCNCC3)c3nncn3c2c1", "note": "[Compound 7, 8-Chloro-4-(piperazin-1-yl)pyrido[2,3-e][1,2,4]triazolo[4,3-a]pyrazine]", "values": [{"measurement": "Cmax", "setting": "[1]", "value": 6570, "unit": "ng/mL"}, {"measurement": "AUC(0-inf)", "setting": "[1]", "value": 16500, "unit": "ng·h/mL"}, {"measurement": "half-life", "setting": "[1]", "value": 1.28, "unit": "h"}, {"measurement": "solubility at 1 h", "setting": "[2]", "value": 1370, "unit": "µg/mL"}, {"measurement": "solubility at 2 h", "setting": "[2]", "value": 1150, "unit": "µg/mL"}, {"measurement": "Metabolic stability (CLh. int), Mouse", "setting": "[4]", "value": 6900, "unit": "µL/min/mg"}]}, {"smiles": "CNC1CN(c2nc3ncc(Cl)cc3n3cnnc23)C1", "note": "[Compound 18, 1-(8-Chloropyrido[2,3-e][1,2,4]triazolo[4,3-a]pyrazin-4-yl)-N-methylazetidin-3-amine]", "values": [{"measurement": "Cmax", "setting": "[1]", "value": 12300, "unit": "ng/mL"}, {"measurement": "AUC(0-inf)", "setting": "[1]", "value": 23700, "unit": "ng·h/mL"}, {"measurement": "half-life", "setting": "[1]", "value": 1.32, "unit": "h"}, {"measurement": "solubility at 1 h", "setting": "[2]", "value": 1590, "unit": "µg/mL"}, {"measurement": "solubility at 2 h", "setting": "[2]", "value": 791, "unit": "µg/mL"}, {"measurement": "Metabolic stability (CLh. int), Mouse", "setting": "[4]", "value": 1760, "unit": "µL/min/mg"}, {"measurement": "IC50", "setting": "[6]", "value": 2.9, "unit": "µM"}, {"measurement": "Number of scratching (% change from control group)", "setting": "[5]", "value": "50.9^1%"}]}, {"smiles": "CNC1CN(c2nc3ncc(Br)cc3n3cnnc23)C1", "note": "[Compound 24, 1-(8-Bromopyrido[2,3-e][1,2,4]triazolo[4,3-a]pyrazin-4-yl)-N-methylazetidin-3-amine]", "values": [{"measurement": "Cmax", "setting": "[1]", "value": 18900, "unit": "ng/mL"}, {"measurement": "AUC(0-inf)", "setting": "[1]", "value": 32200, "unit": "ng·h/mL"}, {"measurement": "half-life", "setting": "[1]", "value": 0.96, "unit": "h"}, {"measurement": "solubility at 1 h", "setting": "[2]", "value": 1690, "unit": "µg/mL"}, {"measurement": "solubility at 2 h", "setting": "[2]", "value": 939, "unit": "µg/mL"}, {"measurement": "Ear epidermis thickness (% change from control group)", "setting": "[3]; 100 mg/kg", "value": "51.2^1%"}, {"measurement": "Metabolic stability (CLh. int), Mouse", "setting": "[4]", "value": 3050, "unit": "µL/min/mg"}, {"measurement": "IC50", "setting": "[6]", "value": 9.1, "unit": "µM"}, {"measurement": "Number of scratching (% change from control group)", "setting": "[5]", "value": "47.9^1%"}]}, {"smiles": "CNC1CN(c2nc3ncc(I)cc3n3cnnc23)C1", "note": "[Compound 48, 1-(8-Iodopyrido[2,3-e][1,2,4]triazolo[4,3-a]pyrazin-4-yl)-N-methylazetidin-3-amine]", "values": [{"measurement": "Cmax", "setting": "[1]", "value": 10200, "unit": "ng/mL"}, {"measurement": "AUC(0-inf)", "setting": "[1]", "value": 21600, "unit": "ng·h/mL"}, {"measurement": "half-life", "setting": "[1]", "value": 1.46, "unit": "h"}, {"measurement": "solubility at 1 h", "setting": "[2]", "value": 1610, "unit": "µg/mL"}, {"measurement": "solubility at 2 h", "setting": "[2]", "value": 677, "unit": "µg/mL"}, {"measurement": "Metabolic stability (CLh. int), Mouse", "setting": "[4]", "value": 5310, "unit": "µL/min/mg"}, {"measurement": "inhibition at 10 µM", "setting": "[6]", "value": 28, "unit": "%"}, {"measurement": "IC50", "setting": "[6]", "value": "> 10", "unit": "µM"}, {"measurement": "Number of scratching (% change from control group)", "setting": "[5]", "value": 30.3, "unit": "%"}]}, {"smiles": "CNC1CN(c2nc3ncc(Br)cc3n3nnnc23)C1", "note": "[Compound 95, 1-(8-Bromopyrido[2,3-e]tetrazolo[1,5-a]pyrazin-4-yl)-N-methylazetidin-3-amine]", "values": [{"measurement": "Cmax", "setting": "[1]", "value": 15400, "unit": "ng/mL"}, {"measurement": "AUC(0-inf)", "setting": "[1]", "value": 98300, "unit": "ng·h/mL"}, {"measurement": "half-life", "setting": "[1]", "value": 4.03, "unit": "h"}, {"measurement": "solubility at 1 h", "setting": "[2]", "value": 1790, "unit": "µg/mL"}, {"measurement": "solubility at 2 h", "setting": "[2]", "value": 1130, "unit": "µg/mL"}, {"measurement": "Ear epidermis thickness (% change from control group)", "setting": "[3]; 50 mg/kg", "value": 34.9, "unit": "%"}, {"measurement": "Metabolic stability (CLh. int), Mouse", "setting": "[4]", "value": 18100, "unit": "µL/min/mg"}, {"measurement": "inhibition at 10 µM", "setting": "[6]", "value": 25, "unit": "%"}, {"measurement": "IC50", "setting": "[6]", "value": "> 10", "unit": "µM"}, {"measurement": "Number of scratching (% change from control group)", "setting": "[5]", "value": "93.6^1%"}]}]}
